Source: patent US4649131A, “Growth hormone releasing factor analogs” (Hoffmann-La Roche Inc., priority 1985, dated 1987)
No end group written: not given here.

Legend:
[1] = tested on: rat pituitary cells; assay: stimulation of growth hormone production in rat pituitary cells in tissue culture (RIA for rat growth hormone); type: cell-based
Experimental: Biological activity of the synthetic GRF(1-44)NH2 was identical to the natural GRF(1-44)NH2 which was isolated from a human pancreatic tumor of an individual suffering from acrommegaly (Salk Institute standard hGRF-NH2 (NL-A-10)). The assay for biological activity, which is based on the ability to stimulate production of growth hormone in rat pituitary cells in tissue culture, was performed in the following manner.
Pituitaries from 30-40 male Sprague-Dawley rats (175 g) were removed aseptically after decapitation. The anterior lobes were collected, washed 3 times in sterile Hepes buffer (0.025M) (pH 7.35) and dispersed at 37° C. in 20-30 ml Hepes buffer (pH 7.35) containing collagenase (4 mg per ml) and Dispase (Protease grade II, 2 mg per ml). After gentle 100-110-min. vortexing and trituration by Pasteur pipette, the dispersed cells were separated by centrifugation (150×g, 4 min) and re-suspended in Hepes buffer containing neuraminidase ([…]), and 200 µg/ml ethylenediaminetetraacetic acid (EDTA) disodium salt pH 7.35, for 10 min. The cells were washed twice with plating medium and plated on multiwell-plates (1.5×10^5 cells per ml) using the following defined medium: F-12/DMEM/BGJ (6:3:1) (Gibco: 430-1700/430-1600/320-2591) with 2 g BSA/1., 2.38 g Hepes/1.50 mg PSN antibiotic mixture (Gibco Laboratories), 10 mg/l transferrin (Sigma T2252) with 1.83 gm NazHCO3/l (Baker 3506). The medium in each well was supplemented either with a sample of the novel GRF peptide or natural GRF(1-44)-NH2 at concentrations ranging from 0.8 to 200 fmol. per ml. of medium. Control wells contained no supplement. Plating was done with this medium added with 2% fetal calf serum to ensure rapid fixation of the cells. On the fourth day the cells were washed twice with the defined medium without fetal calf serum. Finally 900 μl of defined medium was added to each well plus 100 μl of the same medium containing each individual treatment, in triplicate. After 4 hours of incubation the medium was collected and diluted as required to conduct radioimmunoassay (RIAs) for rat growth hormone. […]

[2] = tested on: release of growth hormone; conditions: Rivier and Vale et al., Nature 300, 276-278 (1982); cited from earlier work

CC[C@H](C)[C@H](NC(=O)[C@H](C)NC(=O)[C@H](CC(=O)O)NC(=O)[C@H](C)NC(=O)[C@@H](N)Cc1ccc(O)cc1)C(=O)N[C@@H](Cc1ccccc1)C(=O)N[C@H](C(=O)N[C@@H](CC(N)=O)C(=O)N[C@@H](CO)C(=O)N[C@@H](Cc1ccc(O)cc1)C(=O)N[C@@H](CCCNC(=N)N)C(=O)N[C@@H](CCCCN)C(=O)N[C@H](C(=O)N[C@@H](CC(C)C)C(=O)NCC(=O)N[C@@H](CCC(N)=O)C(=O)N[C@@H](CC(C)C)C(=O)N[C@@H](CO)C(=O)N[C@@H](C)C(=O)N[C@@H](CCCNC(=N)N)C(=O)N[C@@H](CCCCN)C(=O)N[C@@H](CC(C)C)C(=O)N[C@@H](CC(C)C)C(=O)N[C@@H](CCC(N)=O)C(=O)N[C@@H](CC(=O)O)C(=O)N[C@H](C(=O)N[C@@H](CCSC)C(=O)N[C@@H](CO)C(=O)N[C@@H](CCCNC(=N)N)C(=O)N[C@@H](CCC(N)=O)C(=O)N[C@@H](CCC(N)=O)C(=O)NCC(=O)N[C@@H](CCC(=O)O)C(=O)N[C@@H](CO)C(=O)N[C@@H](CC(N)=O)C(=O)N[C@@H](CCC(N)=O)C(=O)N[C@@H](CCC(=O)O)C(=O)N[C@@H](CCCNC(=N)N)C(=O)NCC(=O)N[C@@H](C)C(=O)N[C@@H](CCCNC(=N)N)C(=O)N[C@@H](C)C(=O)N[C@@H](CCCNC(=N)N)C(=O)N[C@@H](CC(C)C)C(N)=O)[C@@H](C)CC)C(C)C)[C@@H](C)O [synthetic GRF(1-44)NH2, GRF(1-44)-NH2]
biological activity compared with natural GRF(1-44)NH2 ([1]; versus natural GRF(1-44)NH2 isolated from a human pancreatic tumor (Salk Institute standard NL-A-10)): identical

GRF(1-29)-NH2
intrinsic activity and potency in vitro [2]: full intrinsic activity and potency

YADAIFTNSYRKVLAQLSARKLLQDIMSR-NH2 [(Ala^15)GRF(1-29)NH2, [Ala^15]-hGRF(1-29)-NH2]
potency compared to GRF(1-44)NH2 ([1]; relative to GRF(1-44)NH2, on a weight for weight basis, 4 hours of incubation): 4.1 times | potency compared to GRF(1-29)NH2 ([1]; relative to unsubstituted shortened GRF(1-29)NH2, 4 hours of incubation): 5.1 times
